# Test results from patent US20250073311A1, “DOSAGE REGIME” (ZEALAND PHARMA A/S, priority 2021, published 2025).
# Several values for one entry are separate records, joined by “and”; a condition that tells them apart may be missing. Equal values may be shown once. Numbered stars: 1 amine (or outer) side, 2 acyl side, 3 side chain; on linkers, the order of the positions; unused ones are H or OH. Square brackets hold non-standard residues; d marks the D form. Side chains are listed from the residue outwards. Peptide text beside a SMILES is read from it. * marks the point of attachment. C18 diacid = O=C(O)CCCCCCCCCCCCCCCCC(=O)*; γGlu = O=C(O)[C@H](CCC(=O)[*:2])N[*:1]; Aib = CC(C)(N)C(=O)O
# Tested on: healthy human subjects
# Assay: Single ascending dose Phase 1a trial, adverse events
# Format: in vivo
# Conditions: 6 subjects
# Protocol: A single ascending dose Phase 1a trial was conducted for Cpd. 18 investigating the safety of single subcutaneous injections of doses ranging from 0.02 mg to 7.5 mg in healthy human subjects.
# The phase 1a study was a First in Human, Randomized, Double-blind, Placebo-controlled, Single Ascending Dose Trial assessing Safety, Tolerability, Pharmacokinetics and Pharmacodynamics of a Single Subcutaneous Dose of Cpd. 18 in Healthy human Subjects.
# Eight cohorts (dose levels: 0.02, 0.07, 0.2, 0.6, 1.5, 3.0, 6.0 and 7.5 mg) were given in this first in human trial. Eight subjects were allocated to the following ascending dose levels: 0.02, 0.07, 0.2, 0.6, 1.5, 3.0, 6.0 and 7.5 mg.
# Adverse events (AE) were captured by asking open ended and nonleading questions according to the following wording in the protocol:
# • All events meeting the definition of an AE must be collected and reported from the first trial-related activity after the subject has signed the informed consent and until the end of the post-treatment follow-up period. At each contact with the site (Visit or telephone) the subject must be asked about AEs. All AEs, either observed by the Investigator or reported by the subject, must be recorded by the Investigator and evaluated. • The Investigator should record the diagnosis, if possible. If no diagnosis can be made the Investigator should record each sign and symptom as individual AEs. • All AEs must be recorded by the Investigator. One single Adverse Event Form must be used per AE from start to resolution. For Serious Adverse Events (SAE), the Serious Adverse Event Form must also be completed.”
smiles,measurement,setting,value
CC[C@H](C)[C@H](NC(=O)[C@H](Cc1ccccc1)NC(=O)[C@H](CC(=O)O)NC(=O)[C@H](CCCNC(=N)N)NC(=O)[C@H](C)NC(=O)[C@H](C)NC(=O)[C@H](CCC(N)=O)NC(=O)[C@H](CCCCNC(=O)CC[C@H](NC(=O)CCCCCCCCCCCCCCCCC(=O)O)C(=O)O)NC(=O)[C@H](CC(=O)O)NC(=O)[C@H](CC(C)C)NC(=O)[C@@H](NC(=O)[C@@H](NC(=O)[C@H](C)NC(=O)[C@H](CC(C)C)NC(=O)[C@H](CCC(=O)O)NC(=O)[C@H](CO)NC(=O)[C@@H](NC(=O)[C@H](Cc1ccccc1)NC(=O)[C@H](CO)NC(=O)CNC(=O)[C@H](CCC(=O)O)NC(=O)C(C)(C)NC(=O)[C@@H](N)Cc1c[nH]cn1)[C@@H](C)O)[C@@H](C)O)[C@@H](C)CC)C(=O)N[C@@H](C)C(=O)N[C@@H](Cc1c[nH]c2ccccc12)C(=O)N[C@@H](CC(C)C)C(=O)N[C@H](C(=O)N[C@@H](CCC(N)=O)C(=O)N[C@@H](Cc1c[nH]cn1)C(=O)N[C@@H](CCCCN)C(=O)N[C@H](C(=O)N[C@H](C(=O)N[C@@H](CC(=O)O)C(=O)O)[C@@H](C)O)[C@@H](C)CC)[C@@H](C)CC [Compound 18] (H-H[Aib]EGSFTSELATILDK([γGlu-C18 diacid])QAARDFIAWLIQHKITD-OH),Subjects experiencing decreased appetite,single s.c. dose 0.02 mg,0
same,Subjects experiencing nausea,single s.c. dose 0.02 mg,2
same,Subjects experiencing vomiting,single s.c. dose 0.02 mg,0
same,Subjects experiencing decreased appetite,single s.c. dose 0.07 mg,1
same,Subjects experiencing nausea,single s.c. dose 0.07 mg,0
same,Subjects experiencing vomiting,single s.c. dose 0.07 mg,0
same,Subjects experiencing decreased appetite,single s.c. dose 0.2 mg,0
same,Subjects experiencing nausea,single s.c. dose 0.2 mg,1
same,Subjects experiencing vomiting,single s.c. dose 0.2 mg,0
same,Subjects experiencing decreased appetite,single s.c. dose 0.6 mg,0
same,Subjects experiencing nausea,single s.c. dose 0.6 mg,0
same,Subjects experiencing vomiting,single s.c. dose 0.6 mg,0
same,Subjects experiencing decreased appetite,single s.c. dose 1.5 mg,3/6 and 3
same,Subjects experiencing nausea,single s.c. dose 1.5 mg,0
same,Subjects experiencing vomiting,single s.c. dose 1.5 mg,0
same,Subjects experiencing decreased appetite,single s.c. dose 3.0 mg,2
same,Subjects experiencing nausea,single s.c. dose 3.0 mg,3
same,Subjects experiencing vomiting,single s.c. dose 3.0 mg,2
same,Subjects experiencing decreased appetite,single s.c. dose 6.0 mg,3
same,Subjects experiencing nausea,single s.c. dose 6.0 mg,4
same,Subjects experiencing vomiting,single s.c. dose 6.0 mg,5
same,Subjects experiencing nausea,single s.c. dose 7.5 mg,2
same,Subjects experiencing vomiting,single s.c. dose 7.5 mg,2
